The source of these data is ChEMBL document CHEMBL3751830, “Design and discovery of new pyrimidine coupled nitrogen aromatic rings as chelating groups of JMJD3 inhibitors” (Bioorg Med Chem Lett, 2016).

Data set [1] has as its target T1, Lysine-specific demethylase 6B (Homo sapiens, UniProt O15054).
Description: Inhibition of JMJD3 (unknown origin) using biotinylated H3K27me3 peptide as substrate after 1 hr by AlphaLISA assay
The target in data set [2] is T1, Lysine-specific demethylase 6B. Put plainly: Inhibition of JMJD3 (unknown origin) using biotinylated H3K27me3 peptide as substrate at 10 uM after 1 hr by AlphaLISA assay.
In data set [3] the test system is RAW264.7. Put plainly: Inhibition of LPS-induced TNFalpha production in mouse RAW264.7 cells after 24 hrs by ELISA. It is filed as functional, cell-based.
Data set [4] concerns RAW264.7. Put plainly: Inhibition of LPS-induced TNFalpha production in mouse RAW264.7 cells 0.82 uM after 24 hrs by ELISA. It is filed as functional, cell-based.
For the next data set, the target named is CYP2D6 (Homo sapiens, UniProt P10635). Put plainly: Inhibition of CYP2D6 in human liver microsomes at 10 uM after 20 mins. It is filed as ADME. In general terms: Microsomes from liver hold many membrane-bound enzymes, among them those of drug oxidation.
The next data set concerns the target T2, CYP1A2 (Homo sapiens, UniProt P05177).
T2 sequence (P05177 whole entry): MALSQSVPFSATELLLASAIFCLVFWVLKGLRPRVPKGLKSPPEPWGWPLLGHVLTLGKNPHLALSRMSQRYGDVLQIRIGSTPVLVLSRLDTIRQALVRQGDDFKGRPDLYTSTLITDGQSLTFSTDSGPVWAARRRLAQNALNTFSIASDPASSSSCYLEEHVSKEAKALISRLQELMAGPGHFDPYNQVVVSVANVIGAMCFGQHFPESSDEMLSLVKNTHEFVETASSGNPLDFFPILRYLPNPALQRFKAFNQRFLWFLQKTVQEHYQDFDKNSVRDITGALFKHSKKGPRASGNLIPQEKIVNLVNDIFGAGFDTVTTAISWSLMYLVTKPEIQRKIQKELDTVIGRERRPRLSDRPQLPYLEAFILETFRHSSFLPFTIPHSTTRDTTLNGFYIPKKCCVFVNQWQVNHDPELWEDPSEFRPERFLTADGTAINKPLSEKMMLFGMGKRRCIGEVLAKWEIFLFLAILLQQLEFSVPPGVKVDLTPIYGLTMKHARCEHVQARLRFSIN
Put plainly: Inhibition of CYP1A2 in human liver microsomes at 10 uM after 20 mins. It counts as ADME.

Data set [5] can be described thus: Intrinsic clearance in human liver microsomes at 1 uM up to 30 mins by LC/MS/MS analysis. It is filed as ADME. The settings on record: read-out: CLH.
Data set [6] is described as follows: Half life in human liver microsomes at 1 uM by LC/MS/MS analysis. It is filed as ADME.
For a further data set, the target named is CYP2C19 (Homo sapiens, UniProt P33261). Put plainly: Inhibition of CYP2C19 in human liver microsomes at 10 uM after 20 mins. It is filed as ADME.
Another data set concerns the target CYP2C9 (Homo sapiens, UniProt P11712). Put plainly: Inhibition of CYP2C9 in human liver microsomes at 10 uM after 20 mins. It counts as ADME.
Another data set deals with CYP3A4 (Homo sapiens, UniProt P08684). Put plainly: in vitro. The settings on record: liver microsomes.

Molecules are shown by their SMILES. Activity calls are given as the source filed them. A value given as a limit tells only on which side of the number the result lay.

CYP2C9, sequence (P11712 whole entry): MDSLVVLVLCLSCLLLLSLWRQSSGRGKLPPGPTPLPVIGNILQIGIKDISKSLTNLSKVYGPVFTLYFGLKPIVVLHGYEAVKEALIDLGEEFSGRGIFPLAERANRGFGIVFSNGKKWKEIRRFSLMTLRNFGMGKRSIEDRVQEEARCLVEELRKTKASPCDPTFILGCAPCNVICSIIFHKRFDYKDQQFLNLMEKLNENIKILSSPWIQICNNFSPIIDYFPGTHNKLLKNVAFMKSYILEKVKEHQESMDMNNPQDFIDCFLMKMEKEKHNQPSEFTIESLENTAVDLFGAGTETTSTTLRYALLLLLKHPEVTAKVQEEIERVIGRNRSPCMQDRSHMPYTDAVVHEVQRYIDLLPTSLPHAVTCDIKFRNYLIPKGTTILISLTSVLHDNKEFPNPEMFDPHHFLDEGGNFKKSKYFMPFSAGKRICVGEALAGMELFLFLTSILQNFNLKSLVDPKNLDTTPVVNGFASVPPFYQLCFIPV
CYP2C19, sequence (P33261 whole entry): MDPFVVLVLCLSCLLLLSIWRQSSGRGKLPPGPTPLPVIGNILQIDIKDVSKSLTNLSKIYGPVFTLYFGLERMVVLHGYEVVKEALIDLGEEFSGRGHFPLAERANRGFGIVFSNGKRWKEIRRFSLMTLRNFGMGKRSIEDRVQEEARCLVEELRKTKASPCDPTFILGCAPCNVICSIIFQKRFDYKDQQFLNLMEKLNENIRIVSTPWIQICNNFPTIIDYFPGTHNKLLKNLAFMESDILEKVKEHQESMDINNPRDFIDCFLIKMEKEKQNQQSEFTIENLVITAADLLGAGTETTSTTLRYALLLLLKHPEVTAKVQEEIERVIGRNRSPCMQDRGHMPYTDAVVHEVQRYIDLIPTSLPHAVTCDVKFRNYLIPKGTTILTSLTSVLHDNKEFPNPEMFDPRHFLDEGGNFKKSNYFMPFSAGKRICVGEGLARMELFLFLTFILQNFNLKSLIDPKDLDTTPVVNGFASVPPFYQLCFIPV
T1 sequence (O15054 whole entry): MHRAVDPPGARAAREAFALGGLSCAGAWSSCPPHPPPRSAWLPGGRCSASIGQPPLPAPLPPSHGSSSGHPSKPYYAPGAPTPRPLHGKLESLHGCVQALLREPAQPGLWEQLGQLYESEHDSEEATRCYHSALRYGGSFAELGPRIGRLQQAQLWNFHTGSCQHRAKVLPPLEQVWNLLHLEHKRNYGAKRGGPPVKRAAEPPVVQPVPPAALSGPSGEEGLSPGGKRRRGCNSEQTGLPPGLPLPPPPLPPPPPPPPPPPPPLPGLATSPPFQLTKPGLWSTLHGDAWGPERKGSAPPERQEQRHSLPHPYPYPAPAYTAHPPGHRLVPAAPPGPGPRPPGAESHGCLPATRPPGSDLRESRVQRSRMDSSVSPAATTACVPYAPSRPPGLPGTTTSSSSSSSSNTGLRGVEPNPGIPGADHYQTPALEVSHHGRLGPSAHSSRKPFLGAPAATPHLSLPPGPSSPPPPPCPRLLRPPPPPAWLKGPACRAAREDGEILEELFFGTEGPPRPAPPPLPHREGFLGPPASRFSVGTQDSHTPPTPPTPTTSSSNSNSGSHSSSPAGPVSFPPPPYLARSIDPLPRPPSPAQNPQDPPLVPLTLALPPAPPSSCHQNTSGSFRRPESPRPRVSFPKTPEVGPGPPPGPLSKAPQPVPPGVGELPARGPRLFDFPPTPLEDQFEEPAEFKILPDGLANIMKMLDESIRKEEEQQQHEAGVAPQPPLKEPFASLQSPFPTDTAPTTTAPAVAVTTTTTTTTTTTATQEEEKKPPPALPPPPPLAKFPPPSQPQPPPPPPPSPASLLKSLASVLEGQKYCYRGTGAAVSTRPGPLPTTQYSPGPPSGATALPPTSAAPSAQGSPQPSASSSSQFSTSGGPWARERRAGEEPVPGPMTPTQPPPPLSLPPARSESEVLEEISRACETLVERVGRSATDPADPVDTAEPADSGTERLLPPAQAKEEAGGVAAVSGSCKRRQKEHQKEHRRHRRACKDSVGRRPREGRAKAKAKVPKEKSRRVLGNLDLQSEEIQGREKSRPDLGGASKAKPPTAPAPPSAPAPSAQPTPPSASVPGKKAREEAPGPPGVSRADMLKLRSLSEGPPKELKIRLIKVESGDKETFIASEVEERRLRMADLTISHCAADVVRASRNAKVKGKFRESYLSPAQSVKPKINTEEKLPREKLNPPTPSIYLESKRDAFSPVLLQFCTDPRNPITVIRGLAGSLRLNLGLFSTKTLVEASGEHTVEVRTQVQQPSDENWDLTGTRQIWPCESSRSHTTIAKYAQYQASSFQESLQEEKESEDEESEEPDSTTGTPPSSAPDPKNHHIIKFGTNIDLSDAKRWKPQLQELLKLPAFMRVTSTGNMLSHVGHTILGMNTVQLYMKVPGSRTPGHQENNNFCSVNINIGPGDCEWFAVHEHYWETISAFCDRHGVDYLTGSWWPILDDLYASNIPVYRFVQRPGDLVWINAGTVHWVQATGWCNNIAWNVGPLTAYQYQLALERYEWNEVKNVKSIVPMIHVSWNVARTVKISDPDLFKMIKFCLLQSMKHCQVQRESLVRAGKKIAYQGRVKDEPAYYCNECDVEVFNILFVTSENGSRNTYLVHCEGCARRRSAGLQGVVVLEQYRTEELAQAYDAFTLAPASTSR
CYP3A4, sequence (P08684 whole entry): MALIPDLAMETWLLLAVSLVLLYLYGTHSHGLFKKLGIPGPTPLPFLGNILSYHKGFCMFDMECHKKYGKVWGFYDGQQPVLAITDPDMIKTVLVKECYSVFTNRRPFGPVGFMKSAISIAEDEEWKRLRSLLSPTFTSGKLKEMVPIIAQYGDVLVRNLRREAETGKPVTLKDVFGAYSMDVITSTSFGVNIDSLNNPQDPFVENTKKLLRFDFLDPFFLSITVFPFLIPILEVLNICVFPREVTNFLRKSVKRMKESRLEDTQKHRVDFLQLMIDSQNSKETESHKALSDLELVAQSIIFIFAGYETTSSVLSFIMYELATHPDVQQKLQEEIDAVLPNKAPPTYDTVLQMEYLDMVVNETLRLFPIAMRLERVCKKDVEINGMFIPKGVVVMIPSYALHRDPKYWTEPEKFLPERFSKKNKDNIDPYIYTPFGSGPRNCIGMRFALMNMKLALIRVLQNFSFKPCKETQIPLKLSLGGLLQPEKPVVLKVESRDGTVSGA
CYP2D6, sequence (P10635 whole entry): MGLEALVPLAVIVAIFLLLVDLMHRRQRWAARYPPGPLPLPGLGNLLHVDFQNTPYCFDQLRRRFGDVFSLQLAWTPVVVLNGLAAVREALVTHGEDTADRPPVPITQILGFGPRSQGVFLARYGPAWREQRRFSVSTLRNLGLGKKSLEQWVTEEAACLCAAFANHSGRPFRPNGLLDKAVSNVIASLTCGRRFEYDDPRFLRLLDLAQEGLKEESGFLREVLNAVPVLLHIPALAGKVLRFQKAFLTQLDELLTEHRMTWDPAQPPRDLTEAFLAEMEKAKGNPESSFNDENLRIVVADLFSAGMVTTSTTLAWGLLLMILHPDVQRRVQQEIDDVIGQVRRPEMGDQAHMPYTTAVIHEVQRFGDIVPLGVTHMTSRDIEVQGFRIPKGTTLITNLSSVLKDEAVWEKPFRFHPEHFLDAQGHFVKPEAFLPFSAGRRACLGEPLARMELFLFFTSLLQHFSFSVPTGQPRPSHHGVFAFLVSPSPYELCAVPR
Description for CYP3A4: Inhibition of CYP3A4 in human liver microsomes at 10 uM after 20 mins

As a reminder, the IC50 is the point on the concentration scale where inhibition reaches its midpoint. A low value points to higher potency. In turn, `O=C(O)CCNc1nc(-c2nccs2)cc(N2CCN(c3ccccn3)CC2)n1` displayed an IC50 in [1] of 0.9 µM.

In turn, `O=C(O)CCNc1nc(N2CCC(c3ccccc3)CC2)cc(-n2nccn2)n1` gave an IC50 in data set [1] of 1.2 µM.

As a reminder, the inhibition is the drop in the measured response relative to a control, in per cent. Regarding `CC(C)(C)OC(=O)NC1CCN(c2cc(-c3nccs3)nc(NCCC(=O)O)n2)CC1`, the inhibition in [2] is 9.8%.

Turning to `O=C(O)CCNc1nc(NC2CCN(Cc3ccccc3)CC2)cc(-c2nccs2)n1`, the inhibition in data set [2] amounted to 10%.

Regarding `CCOC(=O)CCNc1nc(N2CCc3ccccc3CC2)cc(-n2nccn2)n1`, the inhibition entry with RAW264.7 [3] is “Dose-dependent effect”. The inhibition entry with RAW264.7 [4] was “Active”.

`O=C(O)CCNc1nc(N2CCC(c3ccccc3)CC2)cc(-n2ccnn2)n1` gave an IC50 in data set [1] of 2.1 µM.

`O=C(O)CCNc1nc(N2CCN(c3ccccn3)CC2)cc(-n2cc3ccccc3n2)n1`: the inhibition in data set [2] was 54%.

With `COc1cc(CNc2cc(-c3nccs3)nc(NCCC(=O)O)n2)cc(OC)c1`, the inhibition in data set [2] is -8.7%.

As to `O=C(O)CCNc1nc(N2CCc3ccccc3C2)cc(-n2ccnn2)n1`, the IC50 in [1] is 1.4 µM.

Turning to `O=C(O)CCNc1nc(N2CCC(c3ccccc3)CC2)cc(-n2cccn2)n1`, the midpoint of inhibition in data set [1], the IC50, lay at 0.75 µM. This IC50 is about 1.9-fold lower than that of the compound before.

Regarding `O=C(O)CCNc1nc(N2CCN(c3ccc(Cl)c(Cl)c3)CC2)cc(-n2cccn2)n1`, in data set [1], the IC50 came out at 0.74 µM.

As to `O=C(O)CCNc1nc(NCc2cc(C(F)(F)F)cc(C(F)(F)F)c2)cc(-c2nccs2)n1`, the inhibition in data set [2] came to 1%.

On to `O=C(O)CCNc1nc(NC2Cc3ccccc3C2)cc(-c2nccs2)n1`, for which the inhibition in data set [2] turned out to be 21.1%.

Regarding `O=C(O)CCNc1nc(N2CCC(c3ccccc3)CC2)cc(-n2cc3ccccc3n2)n1`, the inhibition in [2] turned out to be 30%.

In data set [1], `O=C(O)CCNc1nc(N2CCc3ccccc3C2)cc(-n2cc3ccccc3n2)n1` came in with a half-inhibitory concentration (IC50) of 6.1 µM.

Take `O=C(O)CCNc1nc(-c2nccs2)cc(N2CCC(N3CCCC3)CC2)n1`: the inhibition in [2] is -8.4%.

As to `CN(Cc1ccco1)c1cc(-c2nccs2)nc(NCCC(=O)O)n1`, in [2], the inhibition stood at 43.9%.

Consider `O=C(O)CCNc1nc(N2CCN(c3ccc(Cl)c(Cl)c3)CC2)cc(-n2ccnn2)n1`, for which the inhibition in data set [2] was found to be 74%.

On to `CCOC(=O)CCNc1nc(-c2nccs2)cc(N2CCc3ccccc3CC2)n1`, for which the inhibition result with RAW264.7 [3] and in the data set on RAW264.7 [4] was “Active” throughout.

The term half-life denotes the time needed for the level to fall by half in the phase considered. Consider `O=C(O)CCNc1nc(N2CCc3ccccc3CC2)cc(-n2cc3ccccc3n2)n1`, for which the inhibition at 20 min, 10 µM was found to be 0% against CYP2D6; 8% against CYP1A2; 11% on CYP2C19; 17% on CYP2C9; 4% at CYP3A4. In [1], this compound registered a concentration for half-maximal inhibition (IC50) of 2.2 µM. The microsomal CLint at 1 µM in [5] stood at 5 µL/min/mg. The compound further yielded a half-life at 1 µM in [6] of 4.28 h.

Compound `O=C(O)CCNc1nc(-c2nccs2)cc(N2CCc3ccccc3C2)n1` came in with a concentration for half-maximal inhibition (IC50) in [1] of 0.99 µM.

Take `COc1ccccc1N1CCN(c2cc(-n3cccn3)nc(NCCC(=O)O)n2)CC1`: the 50% inhibitory concentration (IC50) in [1] is greater than 20 µM.

In the case of `CCOC(=O)CCNc1nc(N2CCc3ccccc3CC2)cc(-n2cccn2)n1`, the inhibition entry in the data set on RAW264.7 [3] is “Dose-dependent effect”. Also, the inhibition entry in the data set with RAW264.7 [4] was “Active”.

Turning to `CC(C)NC(=O)CN1CCN(c2cc(-c3nccs3)nc(NCCC(=O)O)n2)CC1`, in [2], the inhibition was -5.1%.

For the compound `CCOC(=O)CCNc1cc(N2CCc3ccccc3CC2)nc(-c2ccccn2)n1`, the inhibition result in the data set with RAW264.7 [3] and with RAW264.7 [4] was “Active” each time.

In the case of `CC(=O)N1CCN(c2cc(-c3nccs3)nc(NCCC(=O)O)n2)CC1`, the inhibition in [2] was found to be 32.9%.

Turning to `Cc1ccccc1CNc1cc(-c2nccs2)nc(NCCC(=O)O)n1`, the inhibition in data set [2] was -0.6%.

`COc1ccccc1N1CCN(c2cc(-n3nccn3)nc(NCCC(=O)O)n2)CC1` had an IC50 in [1] greater than 20 µM.

In the case of `O=C(O)CCNc1nc(N2CCc3ccccc3C2)cc(-n2cccn2)n1`, the IC50 in data set [1] was determined as 0.49 µM.

In data set [1], `O=C(O)CCNc1nc(N2CCN(c3ccc(F)cc3)CC2)cc(-n2cccn2)n1` showed an IC50 of 0.55 µM.

With `O=C(O)CCNc1nc(N2CCN(c3ccc(F)cc3)CC2)cc(-n2ccnn2)n1`, the concentration for half-maximal inhibition (IC50) in [1] was determined as 10 µM.

In the case of `O=C(O)CCNc1nc(N2CCc3ccccc3CC2)cc(-n2nccn2)n1`, the inhibition at 20 min, 10 µM on CYP2D6 was determined as 6%; against CYP1A2 it was 4%; against CYP2C19 it was 4%; on CYP2C9, 4%; against CYP3A4 it was 7%. Besides, the IC50 in data set [1] is 0.27 µM. Further, the microsomal CLint at 1 µM in data set [5] came out at 1 µL/min/mg. Besides, the half-life at 1 µM in data set [6] turned out to be 38.5 h.

`O=C(O)CCNc1nc(N2CCc3ccccc3CC2)cc(-n2cccn2)n1`: the inhibition at 20 min, 10 µM at CYP2D6 is 5%; against CYP1A2, 5%; against CYP2C19, 3%; at CYP2C9, 5%; against CYP3A4, 3%. The compound further gave an IC50 in [1] of 0.15 µM. In addition, the half-life at 1 µM in data set [6] is greater than 11.6 h.

For `COc1ccccc1N1CCN(c2cc(-c3nccs3)nc(NCCC(=O)O)n2)CC1`, it took 2.1 µM to reach half-maximal inhibition in data set [1] (IC50).

Compound `O=C(O)CCNc1nc(N2CCN(c3ccc(Cl)c(Cl)c3)CC2)cc(-n2nccn2)n1` displayed a 50% inhibitory concentration (IC50) in data set [1] of 1.4 µM. Compared with the last compound, the IC50 is about 1.5-fold lower.

`O=C(O)CCNc1nc(N2CCN(c3ccc(F)cc3)CC2)cc(-n2nccn2)n1` came in with an IC50 in [1] of 2.6 µM. Against the preceding compound, the IC50 is about 1.9-fold higher.

For the compound `CCOC(=O)CCNc1nc(N2CCc3ccccc3CC2)cc(-n2ccnn2)n1`, the inhibition entry with RAW264.7 [3] and with RAW264.7 [4] was “Active” in each case.

As to `O=C(O)CCNc1nc(-c2nccs2)cc(N2CCc3ccccc3CC2)n1`, the inhibition at 20 min, 10 µM was 8% against CYP2D6; 9% against CYP1A2; 13% on CYP2C19; 9% on CYP2C9; 12% at CYP3A4. Moreover, the IC50 in data set [1] worked out at 0.2 µM. For the same compound, the microsomal CLint at 1 µM in data set [5] amounted to 5 µL/min/mg. The compound also displayed a half-life at 1 µM in data set [6] of 4.44 h.

In [1], `O=C(O)CCNc1nc(-c2nccs2)cc(N2CCN(c3ccc(F)cc3)CC2)n1` came in with a half-maximal inhibitory concentration (IC50) of 0.6 µM.

`O=C(O)CCNc1nc(N2CCN(c3ccccn3)CC2)cc(-n2nccn2)n1` registered an IC50 in data set [1] of 1.3 µM.

For `O=C(O)CCNc1cc(N2CCc3ccccc3CC2)nc(-c2ccccn2)n1`, the inhibition at 20 min, 10 µM on CYP2D6 came to 20%; at CYP1A2, 10%; against CYP2C19 it was 16%; against CYP2C9, 5%. Further, in [5], the microsomal CLint at 1 µM was 3 µL/min/mg. The compound further registered a half-life at 1 µM in data set [6] of 8.25 h.

As to `O=C(O)CCNc1nc(N2CCN(c3ccc(F)cc3)CC2)cc(-n2cc3ccccc3n2)n1`, the IC50 in data set [1] was found to be 5.8 µM.

In the case of `O=C(O)CCNc1nc(-c2nccs2)cc(N2CCC(c3ccccc3)CC2)n1`, the IC50 in [1] worked out at 1.2 µM.

On to `O=C(O)CCNc1nc(N2CCN(c3ccccn3)CC2)cc(-n2cccn2)n1`, for which, in data set [1], the IC50 worked out at 1 µM.

With `Cc1ccccc1C1CCN(c2cc(-c3nccs3)nc(NCCC(=O)O)n2)CC1`, the inhibition in [2] stood at 87.5%.

Regarding `O=C(O)CCNc1nc(N2CCc3ccccc3C2)cc(-n2nccn2)n1`, the half-inhibitory concentration (IC50) in [1] was 1.5 µM.

In data set [1], `O=C(O)CCNc1nc(-c2nccs2)cc(N2CCN(c3ccc(Cl)c(Cl)c3)CC2)n1` came in with a half-inhibitory concentration (IC50) of 0.94 µM.

Compound `O=C(O)CCNc1nc(N2CCN(c3ccc(Cl)c(Cl)c3)CC2)cc(-n2cc3ccccc3n2)n1` registered a half-inhibitory concentration (IC50) in [1] greater than 100 µM.

For the compound `O=C(O)CCNc1nc(N2CCc3ccccc3CC2)cc(-n2ccnn2)n1`, the inhibition at 20 min, 10 µM turned out to be 6% on CYP2D6; 1% at CYP1A2; 8% against CYP2C19; 1% against CYP2C9; 7% at CYP3A4. Moreover, the IC50 in data set [1] was 0.21 µM. In [6], this compound returned a half-life at 1 µM greater than 11.6 h.
